Results: ChEMBL document CHEMBL1133198, “Prenylated xanthones as potential P-glycoprotein modulators” (Bioorg Med Chem Lett, 2000)

Assay: Binding affinity of compound to P-glycoprotein recombinant domain of prenylated xanthones was evaluated

Row | Kd [µM] | Compound
1 | 8.05 | COCCOCOc1cc(O)c2c(=O)cc(-c3ccccc3)oc2c1
2 | 0.1 | C=CC(C)(C)c1c(OCOCCOC)cc2oc(-c3ccccc3)cc(=O)c2c1O
3 | 0.59 | COc1cc(O)c2c(=O)c3c(OC)c(OC)ccc3oc2c1CC=C(C)C
4 | 28.8 | COc1cc(O)c2c(=O)c3c(OC)c(OC)ccc3oc2c1 [DECUSSATIN]
5 | 0.39 | COc1cc2oc3ccc(OC)c(OC)c3c(=O)c2c(O)c1CC=C(C)C
6 | 24.8 | COc1cc2oc3ccc(OC)c(OC)c3c(=O)c2c2c1C(C)(C)C(C)O2 (stereo not given)
7 | 0.1 | COCCOCOc1cc(O)c2c(=O)cc(-c3ccccc3)oc2c1CC=C(C)C
8 | 0.25 | C=CC(C)(C)c1c(OC)cc2oc3ccc(OC)c(OC)c3c(=O)c2c1O
9 | 6.1 | COCCOCOc1cc(OCC=C(C)C)c2c(=O)cc(-c3ccccc3)oc2c1
10 | 13.9 | COc1cc(OCC=C(C)C)c2c(=O)c3c(OC)c(OC)ccc3oc2c1
